Reference: patent publication US11001561B2, “Pyrimidinone derivatives as SHP2 antagonists” (MERCK PATENT GMBH, priority 2019, dated 2021)
Structures can show the parent of a compound that is named as a salt. Where two headings read alike, the source gives them in different places.

Target: Full length SHP2 protein (Recombinant Human SHP-2) (Homo sapiens (Human), UniProt Q06124)
Experiment: SHP2 biochemical assay (DiFMUP substrate, activating peptide IRSI_2pY)
Details: activating peptide IRSI_2pY 140 nM, DiFMUP, 60 min
[1] = read-out: SHP-2 biochemical assay IC50
[2] = SHP-2 biochemical assay IC50 (μM)

Sequence of Full length SHP2 protein (Recombinant Human SHP-2) (Q06124 2-593): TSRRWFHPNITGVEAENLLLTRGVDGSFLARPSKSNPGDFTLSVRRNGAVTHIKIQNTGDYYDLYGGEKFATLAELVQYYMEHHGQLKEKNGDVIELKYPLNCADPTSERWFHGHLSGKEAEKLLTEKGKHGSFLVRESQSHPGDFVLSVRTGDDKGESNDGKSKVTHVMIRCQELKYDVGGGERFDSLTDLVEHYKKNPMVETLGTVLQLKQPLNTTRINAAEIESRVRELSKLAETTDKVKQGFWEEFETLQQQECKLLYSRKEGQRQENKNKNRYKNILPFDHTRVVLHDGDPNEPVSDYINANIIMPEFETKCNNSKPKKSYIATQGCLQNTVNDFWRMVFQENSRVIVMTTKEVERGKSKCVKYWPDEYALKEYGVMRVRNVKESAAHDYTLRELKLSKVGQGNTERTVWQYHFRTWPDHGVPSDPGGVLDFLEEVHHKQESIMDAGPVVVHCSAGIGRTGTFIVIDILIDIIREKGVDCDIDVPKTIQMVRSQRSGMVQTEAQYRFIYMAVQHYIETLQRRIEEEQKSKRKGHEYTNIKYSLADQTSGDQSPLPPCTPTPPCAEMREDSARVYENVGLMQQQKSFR
Procedure: The inhibition of SHP2 by compounds of the invention was monitored using the surrogate substrate DiFMUP after protein activation by a peptide bearing two appropriately spaced phosphotyrosine. […] The generation of the DiFMU product by activated SHP2 was monitored through Fluorescence measurement with a PerkinElmer Envision reader. The inhibitor dose response curves were analyzed with Genedata Screener.

| IC50 [1] [µM] | SMILES | IC50 [2] [µM] |
| --- | --- | --- |
| 5.7 | Cc1nc(N2CCC(C)(CN)CC2)cc(=O)n1-c1c(F)ccc(Cl)c1Cl (single isomer, unassigned) [Compound 33b, (3M)-6-[4-(aminomethyl)-4-methylpiperidin-1-yl]-3-(2,3-dichloro-6-fluorophenyl)-2-methyl-3,4-dihydropyrimidin-4-one] | – |
| 0.27 | Cc1nc(N2CCC3(CC2)Cc2ccccc2[C@H]3N)cc(=O)n1-c1cccc(Cl)c1Cl (single isomer, unassigned) [Compound 119a] | – |

Second part, the compound before the results:

| SMILES | IC50 [1] [µM] | IC50 [2] [µM] |
| --- | --- | --- |
| Cc1c(N2CCC3(CCC[C@@H]3N)CC2)nc(N)n(-c2cccc(Cl)c2Cl)c1=O (single isomer, unassigned) [Compound 78a] | > 50 | – |
| Cc1c(N2CCO[C@H](CN)C2)nc(C)n(-c2cccc(Cl)c2Cl)c1=O [Compound 92, 6-[(2R)-2-(aminomethyl)morpholin-4-yl]-3-(2,3-dichlorophenyl)-2,5-dimethyl-3,4-dihydropyrimidin-4-one] | 16 | – |
| Cc1nc(N2CCC(C)(NCC3CCC(O)CC3)CC2)cc(=O)n1-c1cccc(Cl)c1Cl (stereo not shown) [Compound 50, 3-(2,3-dichlorophenyl)-6-(4-{[(4-hydroxycyclohexyl)methyl]amino}-4-methylpiperidin-1-yl)-2-methyl-3,4-dihydropyrimidin-4-one] | 0.56 | – |
| Cc1c(N2CCC(C)(CN)CC2)nc(N)n(-c2cccc(Cl)c2Cl)c1=O [Compound 114, 2-Amino-6-(4-aminomethyl-4-methyl-piperidin-1-yl)-3-(2,3-dichloro-phenyl)-5-methyl-3H-pyrimidin-4-one] | 1.4 | – |
| Cc1nc(N(C)[C@H]2CC[C@](C)(N)CC2)cc(=O)n1-c1cccc(Cl)c1Cl (single isomer, unassigned) [Compound 71a, 3-(2,3-dichlorophenyl)-2-methyl-6-{methyl[(trans)-4-amino-4-methylcyclohexyl]amino}-3,4-dihydropyrimidin-4-one] | – | > 50 |
| COc1ccc(-n2c(C)nc(N3CCC4(CC3)CO[C@@H](C)[C@H]4N)c(C)c2=O)c(Cl)c1Cl [Compound 98, 6-((3S,4S)-4-Amino-3-methyl-2-oxa-8-aza-spiro[4.5]dec-8-yl)-3-(2,3-dichloro-4-methoxy-phenyl)-2,5-dimethyl-3H-pyrimidin-4-one] | 0.5 | – |
| Cc1nc(N(C)[C@H]2CC[C@@](C)(N)CC2)cc(=O)n1-c1cccc(Cl)c1Cl (single isomer, unassigned) [Compound 71b, 3-(2,3-dichlorophenyl)-2-methyl-6-{methyl[(cis)-4-amino-4-methylcyclohexyl]amino}-3,4-dihydropyrimidin-4-one] | – | 20 |
| Cc1nc(N2CCC(C)([C@H](O)CN)CC2)cc(=O)n1-c1cccc(Cl)c1Cl (racemic) [Compound 57b, (+/−)-(3P)-6-{4-[(1S)-2-amino-1-hydroxyethyl]-4-methylpiperidin-1-yl}-3-(2,3-dichlorophenyl)-2-methyl-3,4-dihydropyrimidin-4-one] | – | 3 |
| Cc1c(N2CCC3(CC2)Cc2ccccc2[C@@H]3N)nc(C)n(-c2cccc(Cl)c2Cl)c1=O (atropisomer, axis not shown) [Compound 74d, (3P)-6-[(1R)-1-amino-1,3-dihydrospiro[indene-2,4′-piperidin]-1′-yl]-3-(2,3-dichlorophenyl)-2,5-dimethyl-3,4-dihydropyrimidin-4-one] | – | > 10 |
| Cc1nc(N2CCC(C)(CN)CC2)cc(=O)n1-c1cccc(Cl)c1Cl [Compound 4, 6-[4-(aminomethyl)-4-methylpiperidin-1-yl]-3-(2,3-dichlorophenyl)-2-methyl-3,4-dihydropyrimidin-4-one] | 0.26 | – |
| Cc1nc(N2CC3CC4CC(C4(C)C)C3(CN)C2)cc(=O)n1-c1cccc(Cl)c1Cl (stereo not shown) [Compound 60, 6-[2-(aminomethyl)-9,9-dimethyl-4-azatricyclo[6.1.1.0^2,6]decan-4-yl]-3-(2,3-dichlorophenyl)-2-methyl-3,4-dihydropyrimidin-4-one] | 10 | – |
| Cc1c(N[C@H]2CC[C@@H](N)CC2)ncn(-c2cccc(Cl)c2Cl)c1=O [Compound 85, 6-(4-Amino-cyclohexylamino)-3-(2,3-dichloro-phenyl)-5-methyl-3H-pyrimidin-4-one] | – | > 10 |
| CNC1(C)CCN(c2cc(=O)n(-c3cccc(Cl)c3Cl)c(C)n2)CC1 [Compound 31, 3-(2,3-dichlorophenyl)-2-methyl-6-[4-methyl-4-(methylamino)piperidin-1-yl]-3,4-dihydropyrimidin-4-one] | 0.56 | – |
| Cc1c(N2CCC3(CCC[C@H]3N)CC2)nc(N)n(-c2cccc(Cl)c2Cl)c1=O (single isomer, unassigned) [Compound 78b] | > 10 | – |
| Cc1nc(N2CCC(C)(N)CC2)c(C2CC2)c(=O)n1-c1cccc(Cl)c1Cl [Compound 93, 6-(4-Amino-4-methyl-piperidin-1-yl)-5-cyclopropyl-3-(2,3-dichloro-phenyl)-2-methyl-3H-pyrimidin-4-one] | 12 | – |
| Cc1nc(N2CCC3(CC2)CO[C@@H](C)[C@H]3N)c(CCO)c(=O)n1-c1cccc(Cl)c1Cl [Compound 76, 6-[(3S,4S)-4-amino-3-methyl-2-oxa-8-azaspiro[4.5]decan-8-yl]-3-(2,3-dichlorophenyl)-5-(2-hydroxyethyl)-2-methyl-3,4-dihydropyrimidin-4-one Hydrochloride] | 7 | – |
| CSc1nc(N2CCC(C)(N)CC2)cc(=O)n1-c1cccc(Cl)c1Cl [Compound 1, 6-(4-amino-4-methylpiperidin-1-yl)-3-(2,3-dichlorophenyl)-2-(methylsulfanyl)-3,4-dihydropyrimidin-4-one] | 8.6 | – |
| Cc1nc(N2C[C@@H]3CCC[C@]3(CN)C2)c(C(F)(F)F)c(=O)n1-c1cccc(Cl)c1Cl (racemic) [Compound 25, (+/−)-6-[(3aS,6aR)-3a-(aminomethyl)-octahydrocyclopenta[c]pyrrol-2-yl]-3-(2,3-dichlorophenyl)-2-methyl-5-(trifluoromethyl)-3,4-dihydropyrimidin-4-one] | – | 14 |
| Cc1nc(N2CCC3(CC2)CC3CN)cc(=O)n1-c1cccc(Cl)c1Cl (stereo not shown) [Compound 13, 6-[1-(aminomethyl)-6-azaspiro[2.5]octan-6-yl]-3-(2,3-dichlorophenyl)-2-methyl-3,4-dihydropyrimidin-4-one] | 4.3 | – |
| Cc1c(N2CCc3cc(N)ccc3C2)nc(C)n(-c2cccc(Cl)c2Cl)c1=O [Compound 83, 6-(6-amino-1,2,3,4-tetrahydroisoquinolin-2-yl)-3-(2,3-dichlorophenyl)-2,5-dimethyl-3,4-dihydropyrimidin-4-one] | > 10 | – |
| Cc1nc(N2CCN3C(=O)C(N)CC3C2)cc(=O)n1-c1cccc(Cl)c1Cl (stereo not shown) [Compound 61, 6-7-amino-6-oxo-octahydropyrrolo[1,2-a]pyrazin-2-yl-3-(2,3-dichlorophenyl)-2-methyl-3,4-dihydropyrimidin-4-one] | > 10 | – |
| Cc1nc(N2CCC3(CCC[C@H]3N)CC2)cc(=O)n1-c1cccc(Cl)c1Cl (single isomer, unassigned) [Compound 62a] | > 10 | – |
| COCC(O)CNC1CCN(c2cc(=O)n(-c3cccc(Cl)c3Cl)c(C)n2)CC1 (stereo not shown) [Compound 46, 3-(2,3-dichlorophenyl)-6-{4-[(2-hydroxy-3-methoxypropyl)-amino]piperidin-1-yl}-2-methyl-3,4-dihydropyrimidin-4-one] | > 10 | – |
